Results taken from patent US20240148769A1, “PHARMACEUTICAL COMPOSITION FOR PREVENTING OR TREATING CORONAVIRUS DISEASE 19, CONTAINING CARBOCYCLIC NUCLEOSIDE DERIVATIVE” (FUTURE MEDICINE CO., LTD., priority 2021, published 2024).
Where two headings read alike, the source gives them in different places.

Columns and labels:
[1] = in vitro; conditions: African green monkey
[2] = test system: SARS-CoV-2; experiment: microbe, parasite or virus in culture; assay type: cell-based; conditions: for inhibition at 10 µM: screening criterion for Positives, 10 μM (FIG. 8), read-out: ability to inhibit infection
[3] = Severe acute respiratory syndrome coronavirus 2, Vero cells, SARS-CoV-2 MOI 0.0125, 24 hours, derived through the DRC, duplicate, read-out: IC50
[4] = Severe acute respiratory syndrome coronavirus 2, Vero cells
[5] = Severe acute respiratory syndrome coronavirus 2, Vero, 24 h

SMILES | CC50 [1] [µM] | IC50 [2, 3] [µM] | inhibition at 10 µM [2, 4] [%] | IC50 [2, 5] [µM]
Nc1ncnc2c1ncn2[C@H]1C(O)C(O)[C@@H](CO)[C@H]1F (stereo partly drawn) [Chemical Formula 1-1] | > 50 | 7.43 | ≥ 70 | 
Nc1ncnc2c1ncn2[C@H]1C(O)C(O)[C@@H](CO)C1(F)F (stereo partly drawn) [Chemical Formula 1-2] | > 50 | 3.08 | ≥ 70 | 
CNc1nc(-c2cccs2)nc2c1nc(C#Cc1ccccc1)n2[C@@H]1OCC(O)C1O (stereo partly drawn) [Chemical Formula 2] | > 50 | 7.22 | ≥ 70 | 
CCN(CC)CCCC(C)Nc1ccnc2cc(Cl)ccc12 (stereo not drawn) [Chloroquine, chloroquine, reference compound] | > 150 |  |  | 9.71
Cc1cccc(C)c1OCC(=O)N[C@@H](Cc1ccccc1)[C@@H](O)C[C@H](Cc1ccccc1)NC(=O)[C@H](C(C)C)N1CCCNC1=O [Lopinavir, lopinavir, reference compound] | > 50 |  |  | 20.8
CCC(CC)COC(=O)[C@H](C)N[P@](=O)(OC[C@H]1O[C@@](C#N)(c2ccc3c(N)ncnn23)[C@H](O)[C@@H]1O)Oc1ccccc1 [Remdesivir, remdesivir, reference compound] | > 50 |  |  | 7.9
